According to patent US20260103471A1, “CYCLIC UREA THIAZOLYL COMPOUNDS FOR TREATMENT OF HSV” (Assembly Biosciences, Inc., priority 2022, published 2026):
pEC50: −log10 of the molar value. Like-named read-outs stand apart in the source and are kept apart here.

What was measured:
HSV = details: long-term suppressive treatment; cited from earlier work
HSV-2 G strain = test: HSV-2 Antiviral Assay (Vero cells, cell viability); assay type: cell-based; details: Vero cells, 160 TCID50 HSV-2 G strain, 5 days, cell viability
Summary of the method: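 Vero cells (1.0×10^4/well, attached overnight) given 8-point 3-fold compound dilutions (0.5% DMSO) then infected with 160 TCID50 HSV-2 G strain in 2% FBS medium for 5 days at 37 °C. Protection read as cell viability by WST-8 absorbance at 460 and 620 nm after 3 h.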

HSV-1 = HSV-1 Antiviral Assay (Vero cells, cell viability); assay type: cell-based; details: Vero cells, 80 TCID50 HSV-1, 4 days, cell viability, read-out: HSV-1 EC50
Summary of the method: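 Vero cells (2.5×10^3/well) received 8-point 3-fold compound dilutions in 2% FBS medium (0.5% DMSO), then 80 TCID50 HSV-1. After 4 days at 37 °C, cell viability was measured by CellTiter-Glo luminescence.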

[1] = Human alphaherpesvirus 2, Vero, 120 h

| pEC50 (HSV-2 G strain; [1]) | pEC50 (HSV-1; Human alphaherpesvirus 1, 96 h) | pEC50 (HSV-2 G strain) | pEC50 (HSV-1) | SMILES | reduce transmission risk (HSV) |
| --- | --- | --- | --- | --- | --- |
|  |  |  |  | CC(C)[C@H](N)C(=O)OCCOCn1cnc2c(=O)[nH]c(N)nc21 [valacyclovir] | 46% |
| > 7.00 | > 7.00 |  |  | CNS(=O)(=O)c1sc(N2CCCN(c3ccc(-c4ccccc4F)cc3)C2=O)nc1C [Compound 120] |  |
| > 7.00 | > 7.00 |  |  | Cc1cc2cccc(-c3ccc(N4CCCN(c5nc(C)c(S(N)(=O)=O)s5)C4=O)cc3)c2s1 [Compound 73] |  |
| > 7.00 | > 7.00 |  |  | CNS(=O)(=O)c1sc(N2CCCN(c3ccc(-c4ccccn4)c(F)c3)C2=O)nc1C [Compound 128] |  |
| > 7.00 | > 7.00 |  |  | COc1ccc(F)c(-c2ccc(N3CCCN(c4nc(C)c(S(N)(=O)=O)s4)C3=O)cc2)c1 [Compound 26] |  |
| 6.00 to 7.00 | 6.00 to 7.00 |  |  | Cc1nc(N2CCCN(c3ccc(-c4ccccc4F)cc3F)C2=O)sc1S(=O)(=O)NC1CC1 [Compound 131] |  |
| > 7.00 | > 7.00 |  |  | Cc1nc(N2CCCN(c3ccc(-c4cc(F)cc5c4ccn5C)cc3)C2=O)sc1S(N)(=O)=O [Compound 251] |  |
| > 7.00 | > 7.00 |  |  | Cc1nc(N2CCCN(c3ccc(-c4cc(F)ccc4F)cc3)C2=O)sc1S(C)(=O)=O [Compound 161] |  |
| > 7.00 | > 7.00 |  |  | Cc1nc(N2CCCN(c3ccc(-c4cc(F)cc(Br)c4F)cc3)C2=O)sc1S(N)(=O)=O [Compound 212] |  |
| 5.30 to 6.00 | 5.30 to 6.00 |  |  | Cc1nc(N2CCCN([C@H](C)c3cccc(-c4ccccc4F)c3)C2=O)sc1S(N)(=O)=O (single isomer, unassigned) [Compound 178] |  |
| > 7.00 | > 7.00 |  |  | Cc1nc(N2CC3(COC3)CN(c3ccc(-c4cc(F)ccc4F)cc3)C2=O)sc1S(C)(=O)=O [Compound 436] |  |
|  |  | > 7.00 | > 7.00 | Cc1nc(N2C[C@H](C#N)CN(c3ccc(-c4cc(F)ccc4F)cc3)C2=O)sc1S(N)(=O)=O (single isomer, unassigned) [Compound 376] |  |
| > 7.00 | > 7.00 |  |  | Cc1nc(N2CCCN(c3ccc(-c4ccccc4F)cc3F)C2=O)sc1S(N)(=O)=O [Compound 96] |  |
| > 7.00 | > 7.00 |  |  | Cc1nc(N2CCCN(c3ccc(-c4ccccc4F)c(F)c3)C2=O)sc1S(=O)(=O)NC1CC1 [Compound 133] |  |
| > 7.00 | > 7.00 |  |  | COc1c(F)cc(F)cc1-c1ccc(N2CCCN(c3nc(C)c(S(N)(=O)=O)s3)C2=O)cc1 [Compound 216] |  |
| 5.30 to 6.00 | 6.00 to 7.00 |  |  | Cc1nc(N2CCCN(c3ccc(-c4nc5ccccc5s4)cc3)C2=O)sc1S(N)(=O)=O [Compound 88] |  |
| 6.00 to 7.00 | 6.00 to 7.00 |  |  | CC(=O)N1CC2(C1)CN(c1ccc(-c3cc(F)ccc3F)cc1)C(=O)N(c1nc(C)c(S(N)(=O)=O)s1)C2 [Compound 338] |  |
| > 7.00 | > 7.00 |  |  | Cc1nc(N2CCCN(c3ccc(-c4ccccc4F)cc3)C2=O)sc1S(N)(=O)=O [Compound 8] |  |
